Data from US20090123979A1, “Methods of reducing the inhibitory effect of a tannin on the enzymatic hydrolysis of cellulosic material” (Novozymes, Inc., priority 2007, published 2009).
Where two headings read alike, the source gives them in different places.

How the values were obtained:
[1] = target: T1, Trichoderma reesei CEL6A cellobiohydrolase II (Trichoderma reesei, UniProt P07987, P359R); test: PASC hydrolysis by CEL6A cellobiohydrolase II with tannic acid; assay type: biochemical; settings: 1 mM tannic acid; 2 g PASC per liter, over 4 hours
T1 construct: made in house; host or cells: Fusarium venenatum
T1 sequence (P07987 25-471 P359R): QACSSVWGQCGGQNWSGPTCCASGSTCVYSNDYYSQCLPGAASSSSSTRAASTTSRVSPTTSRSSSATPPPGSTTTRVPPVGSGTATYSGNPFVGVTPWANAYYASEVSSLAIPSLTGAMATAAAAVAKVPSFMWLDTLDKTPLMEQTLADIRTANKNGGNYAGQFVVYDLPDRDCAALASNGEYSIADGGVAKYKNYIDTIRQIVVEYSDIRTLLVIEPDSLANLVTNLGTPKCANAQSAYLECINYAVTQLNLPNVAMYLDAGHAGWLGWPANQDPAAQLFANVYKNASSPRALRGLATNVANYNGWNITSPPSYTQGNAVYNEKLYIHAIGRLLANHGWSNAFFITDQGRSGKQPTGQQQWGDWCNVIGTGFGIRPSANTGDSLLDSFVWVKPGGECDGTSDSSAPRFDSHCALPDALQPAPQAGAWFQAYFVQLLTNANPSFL
Description: (§1) The inhibitory effect of tannic acid was determined on Trichoderma reesei CEL7A cellobiohydrolase 1, Trichoderma reesei CEL6A cellobiohydrolase II, Trichoderma reesei CEL7B endoglucanase 1, and Trichoderma reesei CEL5A endoglucanase II using PASC as substrate.

[2] = target: T2, Cellulolytic Enzyme Composition #2; test: PCS hydrolysis by Cellulolytic Enzyme Composition #2 with added compounds; assay type: biochemical, Trichoderma reesei; settings: for Ki: PCS hydrolysis, Cellulolytic Enzyme Composition #2
T2 construct: Dixon plot linear regression intercept (1/Rate); other: PCS; rate from hydrolysis difference (%) at 0 and 5 hours; rate from hydrolysis difference (%); Ki (x-intercept of Dixon plot); other: PCS hydrolysis, Cellulolytic Enzyme Composition #2; OPC flavonol-equivalent; Ki expressed as galloyl constituents; oth; fused on or other part: In one component the Humicola insolens endoglucanase V (CEL45A) core is fused in front of the A. oryzae beta-glucosidase
Description: Corn stover was pretreated at the U.S. Department of Energy National Renewable Energy Laboratory (NREL), […], Colo., USA, using dilute sulfuric acid. The following conditions were used for the pretreatment: 1.4 wt % sulfuric acid at 195° C. for 4.5 minutes. According to limit digestion with excess cellulase enzymes, the water-insoluble solids in the pretreated corn stover (PCS) contained 59.5% cellulose. Prior to use, the PCS was washed with a large volume of deionized water until soluble acid and sugars were removed. The dry weight of the water-washed PCS was 19.16%.
The effect of a mixture of tannic acid, ellagic acid, epicatechin, and six lignin constituent compounds (4-hydroxyl-2-methylbenzoic acid, vanillin, coniferyl alcohol, coniferyl aldehyde, ferulic acid, and syringaldehyde) was determined on the hydrolysis of PCS by Cellulolytic Enzyme Composition #1 or Cellulolytic Enzyme Composition #2. […] Cellulolytic Enzyme Composition #1 or Cellulolytic Enzyme Composition #2 was added at 0.25 g per liter. Reactions without the addition of the compounds served as controls. The capped tubes were incubated at 50° C. in an INNOVA® 4080 incubator shaker (New Brunswick Scientific Co., Inc., Edison, N.J., USA) at 150 rpm.
Aliquots of the suspensions, sampled over time, were filtered by centrifugation using a 0.45 μm MULTISCREEN® HV membrane (Millipore, Billerica, Mass., USA) at 2000 rpm for 15 minutes using a SORVALL® RT7 centrifuge (Thermo Fisher Scientific, Waltham, Mass., USA). When not used immediately, the filtered aliquots were frozen at −20° C. Sugar concentrations of the samples diluted in 0.005 M H2SO4 were measured after elution by 0.005 M H2SO4 at a flow rate of 0.4 ml/minute from a 4.6×250 mm AMINEX® HPX-87H column (Bio-Rad, Hercules, Calif., USA) at 65° C. with quantitation by integration of glucose and cellobiose using refractive index detection (CHEMSTATION®, AGILENT® 1100 HPLC, Agilent Technologies, Santa Clara, Calif., USA) calibrated with standards of glucose and cellobiose. The resultant equivalents were used to calculate the percentage of cellulose conversion for each reaction.
The degree of cellulose conversion to glucose plus cellobiose sugars (conversion, %) was calculated using the following equation:
Conversion(%)=(glucose+cellobiose×1.053)(mg/ml)×100×162/cellulose(mg/ml)×180)=(glucose+cellobiose×1.053)(mg/ml)×100/(cellulose(mg/ml)×1.111)
In this equation the factor 1.111 reflects the weight gain in converting cellulose to glucose, and the factor 1.053 reflects the weight gain in converting cellobiose to glucose. Cellulose in PCS was determined by a limit digest of PCS to release glucose and cellobiose.
Example 30 was repeated except that each compound was tested separately. […] Reactions without the addition of each compound served as controls.
The effect of OPC or flavonol on the hydrolysis of PCS by Cellulolytic Enzyme Composition #1 or Cellulolytic Enzyme Composition #2 was determined according to the procedure described in Example 30. OPC and flavonol were present at a concentration of 1 mM. Reactions without the addition of the compounds served as controls.
The effective inhibitory concentration range for tannic acid and OPC was also determined by the “mini-scale” hydrolysis described in Example 30 with Cellulolytic Enzyme Composition #2. The concentration of tannic acid ranged from 0.1 mM to 1 mM, while the concentration of OPC ranged from 0.1 mM to 10 mM. Reactions without the addition of the tannic compounds served as controls.
However, prior to the addition of Cellulolytic Enzyme Composition #2, the mixture of PCS or OPC and tannic acid was treated with Aspergillus oryzae tannase (Novozymes A/S, Bagsværd, Denmark) at 10% of the final protein level for 30 minutes. Reactions without addition of the tannic acid, OPC, or tannase served as controls.

[3] = target: T3, Cellulolytic Enzyme Composition #1; test: PASC hydrolysis by Cellulolytic Enzyme Composition #1 with tannic acid; assay type: biochemical, Trichoderma reesei; settings: mean ± SD, 0.01 g enzyme per liter, pH 5.0, 50° C., read-out: I50 (inhibitor concentration leading to 50% loss of hydrolysis rate)
T3 construct: other: PASC hydrolysis; mean ± SD; 0.01 g enzyme; Dixon plot linear regression intercept (1/Rate); other: AVICEL; rate from hydrolysis difference (%) at 0 and 6 hours; rate from hydrolysis difference; fused on or other part: The A. oryzae beta-glucosidase is the mature chain secreted behind the Humicola insolens endoglucanase V signal peptide, which is cleaved off
Description: Initial hydrolysis rates were obtained from the first two hydrolysis time points (i.e., soluble sugar measurements) (with <20% hydrolysis extent in general, rate=(hydrolysis difference)/(time difference)). Double-reciprocal plots (1/(initial rate) vs 1/[cellulose] as function of tannic acid concentration) indicated a “mixed” type inhibition, but their complexity prevented extraction of simple inhibitor constants. Initial rate vs tannic acid concentration yielded an I50 (inhibitor concentration leading to 50% loss of hydrolysis rate) of 0.2±0.1 or 0.27±0.07 mM on PASC or AVICEL® hydrolysis, respectively

[4] = target: T4, Trichoderma reesei CEL7A cellobiohydrolase I (Trichoderma reesei, UniProt P62694, INS458P/R459P); test: PASC hydrolysis by CEL7A cellobiohydrolase I with tannic acid; assay type: biochemical
T4 construct: made in house
T4 sequence (P62694 other isoform, or with tags, fused parts or gaps INS458P/R459P): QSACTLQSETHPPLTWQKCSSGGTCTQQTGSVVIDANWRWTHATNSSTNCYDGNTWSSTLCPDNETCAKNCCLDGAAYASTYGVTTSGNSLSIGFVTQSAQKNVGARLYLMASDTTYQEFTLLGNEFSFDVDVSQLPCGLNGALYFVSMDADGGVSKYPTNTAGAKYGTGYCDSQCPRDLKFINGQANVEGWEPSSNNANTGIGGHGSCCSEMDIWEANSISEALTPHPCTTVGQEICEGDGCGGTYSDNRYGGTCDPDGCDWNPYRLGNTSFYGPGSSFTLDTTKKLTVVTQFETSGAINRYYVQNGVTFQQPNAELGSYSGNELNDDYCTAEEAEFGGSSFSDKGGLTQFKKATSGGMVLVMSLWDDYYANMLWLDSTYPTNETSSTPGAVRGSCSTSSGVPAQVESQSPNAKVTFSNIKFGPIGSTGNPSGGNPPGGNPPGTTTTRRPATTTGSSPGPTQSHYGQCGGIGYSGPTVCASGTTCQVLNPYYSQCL
Description: as §1
To quantify the inhibition, tannic acid was evaluated in the hydrolysis of PASC.

[5] = PCS, rate from hydrolysis difference (%) at 0 and 5 hours

O=C(OC[C@H]1O[C@@H](OC(=O)c2cc(O)c(O)c(OC(=O)c3cc(O)c(O)c(O)c3)c2)[C@H](OC(=O)c2cc(O)c(O)c(OC(=O)c3cc(O)c(O)c(O)c3)c2)[C@@H](OC(=O)c2cc(O)c(O)c(OC(=O)c3cc(O)c(O)c(O)c3)c2)[C@@H]1OC(=O)c1cc(O)c(O)c(OC(=O)c2cc(O)c(O)c(O)c2)c1)c1cc(O)c(O)c(OC(=O)c2cc(O)c(O)c(O)c2)c1 [tannic acid, Tannic acid]
effect on PASC hydrolysis by CEL6A cellobiohydrolase II [1]: significantly inhibited
Ki ([2]; OPC flavonol-equivalent, read-out: Ki (x-intercept of Dixon plot)): ~180 µM
Ki ([2]; corresponding galloyl constituents, read-out: Ki expressed as galloyl constituents): 1800 µM
Dixon plot linear regression intercept (1/Rate) [2, 5]: 0.018±0.005
Dixon plot linear regression slope (1/Rate vs inhibitor concentration) [2, 5]: 0.098±0.009
concentration dependence of inhibition of PCS hydrolysis ([2]; tannic acid 0.1 mM to 1 mM, OPC 0.1 mM to 10 mM, 43 g PCS and 0.25 g enzyme per liter): increasingly inhibitory
IC50 [3]: 200 ± 100 µM
IC50 [4]: ~1000 µM
effect on PASC hydrolysis by CEL7A cellobiohydrolase I ([4]; 1 mM tannic acid, 2 g PASC per liter, over 4 hours): significantly inhibited
type of inhibition (double reciprocal plots), CEL7A CBHI ([4]; PASC, 0.1 to 0.7 mM tannic acid): mixed
